One assay has as its system DMS114 cells. Put plainly: CCK-8 cytotoxicity assay, 72 h. The format is cell-based. The conditions noted are these: Homo sapiens, DMS-114. The source says: (§1) We have determined cell cytotoxicity toward a specific drug, employing Cell Counting Kit-8 (Dojindo Molecular Technologies, Rockville, MD) as previously described (15).
(§2) The expression levels of DRP1 and DHODH in SCLC lines were compared with non-malignant BEAS 2B cells. Elevated levels of DRP1 and pDRP1 at Ser^616 were detected in all tested SCLC cells. Higher expression of DHODH was also observed in all seven SCLC cell lines (FIG. 1C). Previous studies have shown that Leflu and its active metabolite Teri regulate mitochondrial morphology (9,10,26). To find the effects of these two drugs on DRP1, AA docking (27) method was used to search for the best binding pocket for inhibitor binding. […] Leflu has a medium docking score of −5.6 kcal/mol. […] In vitro cytotoxicity effect of Teri and Leflu was tested in a panel of SCLC cell lines. Ten SCLC cell lines were treated with increasing concentrations of each drug for 72 h. […] In contrast, IC50 doses were much higher for Leflu. Upon oral administration of Leflu, over 80% of the drug is converted to Teri (28), indicating a potential reason for higher sensitivity to Teri. Two cell lines, SBC3 and SBC5, with IC50 2 μM and 30 μM, respectively, for Teri were used for additional experiments. […] The inhibitory effect was higher with Teri in both cell lines (FIG. 2A).
For orientation: Formazan colour is commonly taken as a measure of viable cells.

Another assay deals with DMS273 cells. Kind of assay: CCK-8 cytotoxicity assay, 72 h. The assay is classed as cell-based. The settings on record: Homo sapiens, DMS-273.
From the text: as §1, §2

In another assay the test system is H146 cells. Kind of assay: CCK-8 cytotoxicity assay, 72 h. The assay is classed as cell-based. The settings on record: Homo sapiens, NCI-H146.
From the text: as §1, §2

The subject of the next assay is H345 cells. Kind of assay: CCK-8 cytotoxicity assay, 72 h. The assay is classed as cell-based. The conditions noted are these: Homo sapiens, NCI-H345.
From the text: as §1, §2

A further assay relates to H524 cells. Put plainly: CCK-8 cytotoxicity assay, 72 h. The assay is classed as cell-based. The conditions noted are these: Homo sapiens, NCI-H524.
From the text: as §1, §2

The next assay relates to H526 cells. Put plainly: CCK-8 cytotoxicity assay, 72 h. The format is cell-based. The conditions noted are these: Homo sapiens, NCI-H526.
From the text: as §1, §2

A further assay concerns H69 cells. Put plainly: CCK-8 cytotoxicity assay, 72 h. The format is cell-based. The conditions noted are these: Homo sapiens, NCI-H69.
From the text: as §1, §2

A further assay concerns H82 cells. Kind of assay: CCK-8 cytotoxicity assay, 72 h. The settings on record: Homo sapiens, NCI-H82. The format is cell-based.
From the text: as §1, §2

A further assay relates to SBC3 xenograft. Put plainly: SBC3 mouse xenograft, Lur/Leflu study. The settings on record: for tumor weight at end of study: Lur 0.5 mg/kg, Leflu 3.8 mg/kg, i.p. twice a week; for reduction in tumor size/weight: vs control. The assay is classed as in vivo. The method, then:
Athymic nude nu/nu mice were obtained from Charles River, Wilmington, MA, and were acclimated for a week before beginning the experiment. All animal experiments were carried out in accordance with a protocol approved by the Institutional Animal Care and Use Committee COH (IACUC #16004). For treatments, mice were divided into 4 groups with five mice per group and subcutaneously injected into one flank with 2×10^6 SBC3 or SBC5 cells suspensions in 100 μl of PBS. Treatment started on the 14th day when tumors became palpable. Two in vivo studies were done in this project. SBC3 and SBC 5 xenograft with i) vehicle control, ii) […] 50 mg/kg, iii) Leflu 7.5 mg/kg, and iv) […]/Leflu. SBC3 with i) vehicle control, ii) Lur 0.5 mg/kg, iii) Leflu 3.8 mg/kg, and iv) Lur/Leflu. Treatments were given to mice via i.p. twice a week for 6 weeks. Animals were examined daily for signs of tumor growth. Tumors were measured in two dimensions using calipers and body weights were recorded. Animals were photographed on days 1, 5, 10, 15, 20, 25, 30, 35, and 40 after treatment. Tumors were removed on day 40 and photographed. At the end of the study, the mice were euthanized by CO2 asphyxiation followed by cervical dislocation. The tumor weights were compared between groups using an unpaired Student's t-test. A portion of the tumor was fixed in 10% buffered formaldehyde solution and paraffin-embedded for immuno-staining. FFPE tumor sections were stained with pDRP Ser^616 antibody. Tumor sections were deparaffinized and rehydrated, followed by heat-mediated antigen retrieval (pH 6, Dako). After permeabilization and blocking, tumor sections were stained with pDRP1 Ser^616 antibody overnight, washed and incubated with Alexa 488 secondary antibody for one hour, mounted and observed on an LSM 880 with a 10×/0.45 NA objective (Carl Zeiss). Immunofluorescent confocal images were acquired for each treatment (magnification:100×). Mean immunofluorescence intensities were calculated with ZEN 2.3 Lite software.

The test system of another assay is H446 spheroids. Kind of assay: Immunoblotting of spheroid lysates. The assay is classed as cell-based, human. The conditions noted are these: for DRP1 phosphorylation at Ser616: Teri 1600 and 3200 nM. The method, then: SCLC total cell lysates were prepared using RIPA (radioimmunoprecipitation assay lysis buffer) lysis buffer. Protein concentration was determined using DC Protein Assay Kit Bio-Rad (Hercules, CA). Samples were then run on SDS-PAGE in 4-15% polyacrylamide gels and transferred onto Immobilon membranes (Millipore, MO), blocked, incubated with specific primary antibodies at 4° C. overnight, and subsequently developed with secondary antibodies. The following primary antibody were used: pan-Actin, Phospho-DRP1 (Ser^616), Phospho-DRP1 (Ser^637), Histone H2B (V^119), Phospho-Histone H2A.X (Ser^139), Phospho-P53 (Ser^15), P-53, Cleaved PARP (Asp^214) (D64E10), Phospho-Chk1 (Ser^345) (133D3) and p21 were from Cell Signaling Technology (City of Industry, CA), β-Actin (Sigma-Aldrich, St. Luis, MO), Phospho RNA Polymerase II (S2) antibody (Bethyl Lab, Montgomery, TX), RNA Polymerase II CTD4H8 (BioLegend, San Diego, CA), DHODH (E-8), DRP1 (C-5), GAPDH (0411), c-Myc (9E10), Tom20 (F-10), FisI (B-5), OPA1 (D-9), antibodies from Santa Cruz Biotechnology (Dallas, TX) and MFN2 (Abcam, Boston, MA) and Chk1, MDM2, Cyclin CDK4 and D1, and E2F1 (Proteintech, Rosemont, IL).
SBC3 and H446 cells were plated at a density of 10,000 cells per well in 96-well ULA round-bottomed plates (S-Bio, Hudson, NH) and incubated for 72 h at 37° C., 5% CO2, and 95% humidity. Spheroids were transferred to low cell attachment dishes, grown for two days, and treated with drug. After treatment, spheroid samples were run with Western blot assay. For spheroid mitochondria visualization, they were stained with 250 nM MitoTracker® Red CMXRos and Hoechst from ThermoFisher Scientific (Waltham, MA) for 2 h after drug treatment. Spheroids were washed, fixated with 4% PFA, transferred into 96-well flat glass-bottom black microplate (Cellvis, Mountain View, CA), and mounted in wells.
For orientation: In western blotting, separated proteins are transferred to a membrane and probed.

For orientation: IC50 means the concentration that gives 50% inhibition.

Regarding `Cc1oncc1C(=O)Nc1ccc(C(F)(F)F)cc1` [Leflunomide, leflunomide], the IC50 in the assay on DMS114 cells was greater than 152 µM; with DMS273 cells, greater than 152 µM; with H146 cells, 152 µM; in the assay on H345 cells, greater than 152 µM; in the assay on H524 cells it was 133 µM; in the assay on H526 cells it was 48.3 µM. Moreover, the IC50 was greater than 152 µM in the assay on H69 cells and 103 µM with H82 cells. Moreover, in the assay on SBC3 xenograft, the “tumor weight at end of study” value was 1.39 ± 0.12 g. Further, in the assay with SBC3 xenograft, the “reduction in tumor size/weight” value is roughly 22%.

With `COc1ccc2[nH]c3c(c2c1)CCN[C@]31CS[C@@H]2c3c(OC(C)=O)c(C)c4c(c3[C@H](COC1=O)N1[C@@H]2[C@H]2c3c(cc(C)c(OC)c3O)C[C@@H]([C@@H]1O)N2C)OCO4` [Lurbinectedin, lurbinectedin], in the assay with H446 spheroids, the CDK4 result is “inactivated” and the “DRP1 phosphorylation at Ser616” value is “reduction”. In the assay on SBC3 xenograft, the “tumor weight at end of study” value came out at 1.09 ± 0.11 g and the “reduction in tumor size/weight” value was roughly 39%.

For `C/C(O)=C(\C#N)C(=O)Nc1ccc(C(F)(F)F)cc1` [Teriflunomide, teriflunomide], the IC50 in the assay on DMS114 cells is 12.6 µM; in the assay with DMS273 cells, 43.7 µM; with H146 cells, 8.6 µM; with H345 cells, greater than 43.7 µM; in the assay with H524 cells, 10.8 µM; in the assay on H526 cells it was 7.6 µM. Also, the values for the IC50 in the assay on H69 cells and in the assay with H82 cells were 17.1 µM and 7.2 µM, respectively. The p21 result with H446 spheroids is “strongly elevated”. The “DRP1 phosphorylation at Ser616” value in the assay with H446 spheroids is reported as “dose-dependent inhibition”.
